The record followed here is paper PMC7525011, “Mycobacterium tuberculosis Calcium Pump CtpF Modulates the Autophagosome in an mTOR-Dependent Manner” (Frontiers in Cellular and Infection Microbiology, 2020).

The target of the test is CtpF (Mycobacterium tuberculosis, UniProt P9WPS9). As to conditions: with Ca2+ or Mg2+; 1 mM ATP; 60 mM Tris pH 7.4, 100 mM KCl; described as competitive inhibitor.
Chain of CtpF (P9WPS9 whole entry): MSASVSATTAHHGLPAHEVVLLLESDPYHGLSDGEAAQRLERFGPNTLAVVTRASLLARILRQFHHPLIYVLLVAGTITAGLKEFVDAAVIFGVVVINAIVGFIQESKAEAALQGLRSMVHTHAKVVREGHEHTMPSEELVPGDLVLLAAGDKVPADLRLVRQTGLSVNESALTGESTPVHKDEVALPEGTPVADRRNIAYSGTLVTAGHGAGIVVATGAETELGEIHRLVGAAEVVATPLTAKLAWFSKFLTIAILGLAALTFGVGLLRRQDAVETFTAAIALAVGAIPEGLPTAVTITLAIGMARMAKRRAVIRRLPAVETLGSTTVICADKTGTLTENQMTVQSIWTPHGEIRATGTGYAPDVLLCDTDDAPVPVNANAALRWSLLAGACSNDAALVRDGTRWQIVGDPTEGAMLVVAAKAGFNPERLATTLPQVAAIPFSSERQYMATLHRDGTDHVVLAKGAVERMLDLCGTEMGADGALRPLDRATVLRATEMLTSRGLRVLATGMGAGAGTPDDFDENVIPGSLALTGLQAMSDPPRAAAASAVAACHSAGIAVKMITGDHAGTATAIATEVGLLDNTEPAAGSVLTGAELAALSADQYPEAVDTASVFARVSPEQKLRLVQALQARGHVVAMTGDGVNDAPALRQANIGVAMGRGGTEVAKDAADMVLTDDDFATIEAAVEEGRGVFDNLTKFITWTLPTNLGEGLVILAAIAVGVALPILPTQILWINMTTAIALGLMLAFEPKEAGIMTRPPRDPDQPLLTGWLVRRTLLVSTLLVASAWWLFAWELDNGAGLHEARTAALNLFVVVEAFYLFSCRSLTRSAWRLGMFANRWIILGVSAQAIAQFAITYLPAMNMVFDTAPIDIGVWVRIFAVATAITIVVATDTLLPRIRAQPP

Regarding `[O]=[V]([OH])([OH])[OH]` [sodium orthovanadate], the “complete inhibition of Pi release” value is given as “sodium orthovanadate, a competitive inhibitor of ATPase activity was used in the reaction”.
